Results on five compounds are retold here after ChEMBL document CHEMBL1857833, “Screening and optimization of specific chemical series against human African Trypanosomiasis (HAT)”.

The nature of data set [1]: (§1) DNDI: Cytotoxicity against L929 mouse fibroblasts, CYTO-SP, 24 hour. The format is toxicity, cell-based. The following applies: mouse, L929 mouse fibroblasts.
The test system of the next data set is L929. Described as §1. The class given is toxicity, cell-based. The settings on record: l929.
A short description of data set [2]: DNDI: Cytotoxicity against L929 mouse fibroblasts, 72 hour. The class given is toxicity, cell-based. The settings on record: mouse, L929 mouse fibroblasts.
Data set [3] concerns Trypanosoma brucei. The data set is described as follows: DNDI: Inhibition of Human African Trypanosomiasis, Cross 22, in vitro. The format is functional, organism-based.
For data set [4], the system named is Trypanosoma brucei. Nature of the data set: DNDI: Inhibition of Human African Trypanosomiasis, EATRO 110, in vitro. The class given is functional, organism-based.
The subject of data set [5] is Trypanosoma brucei. Nature of the data set: DNDI: Inhibition of Human African Trypanosomiasis, SBRI 427, in vitro. The class given is functional, organism-based.
Data set [6] is described as follows: DNDI: Lipophilicity measured in Chromatographic hydrophobicity index (CHI) assay, pH 7.4. The class given is physicochemical. The following applies: buffer.
The nature of data set [7]: DNDI: half life in human liver microsomes at a concentration of 10uM. The class given is ADME, Microsome. A general note: Microsomes from liver hold many membrane-bound enzymes, among them those of drug oxidation.
The nature of data set [8]: DNDI: in vitro intrinsic clearance in human liver microsomes at a concentration of 10uM. The format is ADME, Microsome.
Data set [9] in a line: DNDI: in vitro intrinsic clearance in mouse liver microsomes at a concentration of 10uM. The class given is ADME, Microsome. The following applies: read-out: CLint in vitro.
A short description of data set [10]: DNDI: half life in mouse liver microsomes at a concentration of 10uM. The format is ADME, Microsome.
Data set [11] in a line: DNDI: Solubility in phosphate buffered saline at pH7.4 measured by optical density (turbidimetry) at room temperature (OD-RT). The class given is physicochemical. The settings on record: pH 7.4.
The conditions of data set [12]: mouse, microsomes, 1 µM.
Description: DNDI: in vitro intrinsic clearance in mouse liver microsomes at a concentration of 1uM
The next data set is described as follows: in vitro. The following applies: mouse, liver microsomes, t (1 / 2).
Data set [13] has as its target T1, MDR1 (ABCB1) (Homo sapiens, UniProt P08183). Nature of the data set: DNDI: % of compound recovered from apical to basolateral permeability assay in MDCK cells transfected with human MDR1. The format is ADME, cell-based, Canis lupus familiaris. The following applies: dog.
For data set [14], the target named is T1, MDR1 (ABCB1). Nature of the data set: DNDI: Apparent permeability from apical to basolateral side of the MDCK cell transfected with human MDR1. The following applies: dog. The format is ADME, cell-based, Canis lupus familiaris.
In data set [15] the target is T1, MDR1 (ABCB1). Nature of the data set: DNDI: Apparent permeability from basolateral to apical side of the MDCK cell transfected with human MDR1 after 60 mins at a concentration of 3uM. The class given is ADME, cell-based, Canis lupus familiaris. The following applies: dog.
For data set [16], the target named is T1, MDR1 (ABCB1). The data set is described as follows: DNDI: % of compound recovered from basolateral to apical permeability assay in MDCK cells transfected with human MDR1. The class given is ADME, cell-based, Canis lupus familiaris. The settings on record: dog.
The target of data set [17] is T1, MDR1 (ABCB1). The data set is described as follows: DNDI: Efflux ratio for permeability from basolateral to apical side to apical to basolateral side of MDCK cells transfected with human MDR1. The class given is ADME, cell-based, Canis lupus familiaris. The settings on record: dog, read-out: B-A/A-B.
The nature of data set [18]: DNDI: half-life in mouse S9 microsomes at a concentration of 1uM. The class given is ADME, subcellular, Liver, S9 fraction.
Data set [19] in a line: DNDI: half-life in mouse S9 microsomes at a concentration of 10uM. The format is ADME, subcellular, Liver, S9 fraction.
Data set [20] is described as follows: DNDI: Solubility in phosphate buffered saline at pH7.4 measured by nephelometry at room temperature (NEPH-RT). The format is physicochemical. The following applies: pH 7.4.
Setting [21] is: Trypanosoma brucei, SBRI 427, read-out: IC50.

Each structure is given as a SMILES string. In brackets after ≈: the same amount, converted by molar mass. Several values for one entry are separate records, joined by “and”; a condition that tells them apart may be missing. Equal values may be shown once. Where only a bound is given, the exact number is not on record here.

The term IC50 denotes the concentration that inhibits the measured activity by half. The term chromatographic logD denotes lipophilicity estimated from chromatographic retention. A low value points to a more hydrophilic compound. For orientation: half-life means how long it takes for the measured level to halve. Higher therefore signals slow loss. As a reminder, the kinetic solubility is solubility judged after dilution from a stock solution rather than from solid. The Papp A→B is how fast a substance crosses the layer from the apical side. Usually Papp B→A stands for the apparent permeability from the basolateral to the apical side of a cell layer.

T1 sequence (P08183 whole entry): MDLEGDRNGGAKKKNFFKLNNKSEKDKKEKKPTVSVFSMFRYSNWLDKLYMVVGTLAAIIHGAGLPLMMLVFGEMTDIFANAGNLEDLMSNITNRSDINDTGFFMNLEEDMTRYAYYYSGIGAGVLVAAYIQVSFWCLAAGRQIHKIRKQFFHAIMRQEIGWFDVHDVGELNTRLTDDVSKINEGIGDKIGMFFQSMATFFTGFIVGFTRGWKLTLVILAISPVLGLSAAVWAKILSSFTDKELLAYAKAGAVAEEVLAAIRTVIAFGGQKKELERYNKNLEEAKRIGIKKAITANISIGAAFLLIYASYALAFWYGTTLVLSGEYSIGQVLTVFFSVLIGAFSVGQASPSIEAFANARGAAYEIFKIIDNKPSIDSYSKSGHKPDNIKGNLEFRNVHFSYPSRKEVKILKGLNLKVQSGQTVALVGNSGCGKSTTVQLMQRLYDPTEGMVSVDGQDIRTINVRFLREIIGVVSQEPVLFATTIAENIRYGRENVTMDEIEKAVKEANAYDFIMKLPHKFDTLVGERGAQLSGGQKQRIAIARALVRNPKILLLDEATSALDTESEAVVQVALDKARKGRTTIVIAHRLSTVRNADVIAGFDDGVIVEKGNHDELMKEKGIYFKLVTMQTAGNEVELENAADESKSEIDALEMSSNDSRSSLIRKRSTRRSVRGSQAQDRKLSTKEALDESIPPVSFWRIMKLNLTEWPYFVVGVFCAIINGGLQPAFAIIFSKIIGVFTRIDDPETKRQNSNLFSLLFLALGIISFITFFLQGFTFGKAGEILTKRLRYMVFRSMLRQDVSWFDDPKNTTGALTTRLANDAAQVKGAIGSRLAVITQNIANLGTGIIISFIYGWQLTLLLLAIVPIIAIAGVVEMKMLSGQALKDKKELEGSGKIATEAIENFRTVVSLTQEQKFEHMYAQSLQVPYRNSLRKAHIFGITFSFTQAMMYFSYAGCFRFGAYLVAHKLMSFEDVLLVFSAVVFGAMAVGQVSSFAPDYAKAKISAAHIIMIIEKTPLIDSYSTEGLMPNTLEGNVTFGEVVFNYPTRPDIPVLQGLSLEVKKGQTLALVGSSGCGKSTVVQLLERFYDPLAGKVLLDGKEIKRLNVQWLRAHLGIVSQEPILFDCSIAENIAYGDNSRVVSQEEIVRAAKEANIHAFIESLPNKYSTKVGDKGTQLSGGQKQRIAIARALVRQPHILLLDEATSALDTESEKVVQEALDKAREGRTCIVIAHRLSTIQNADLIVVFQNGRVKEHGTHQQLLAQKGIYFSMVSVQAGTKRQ
Description for in vitro: DNDI: half life in mouse liver microsomes at a concentration of 1uM

Turning to `CCOc1ccc(-c2nc(CNC3C[C@@H]4C[C@H]([C@H]3C)C4(C)C)co2)cc1` (some centres undefined), the IC50 at 24 h in data set [1] was > 50 µg/mL. In addition, the IC50 is 28.6 µg/mL (≈ 80.7 µM) in the data set on L929, 1.72 µg/mL (≈ 4.85 µM) in the data set with Trypanosoma brucei [3], 1.16 µg/mL (≈ 3.27 µM) in the data set on Trypanosoma brucei [4] and 1.07 ug/ml [middle of 5 runs] in the data set on Trypanosoma brucei [5]. In data set [2], the IC50 at 72 h turned out to be 3.51 µg/mL (≈ 9.9 µM). In addition, the chromatographic logD in data set [6] came out at 5.22. For the same compound, the results for the half-life at 10 µM in data set [7] and in [10] were 2.9 h and 0.4 h, respectively. Further, the CLint in vitro in data set [8] came out at 17 µL/min/mg; in data set [12] it was 207 µL/min/mg. Also, the microsomal CLint at 10 µM in data set [9] was determined as 121 µL/min/mg. In [11], this compound returned a solubility (kinetic) of 6.3 µM (≈ 2.23 µg/mL). This compound had a half-life at 1 µM in the data set “in vitro” of 0.0667 h.
`CCCCCC(C)NCc1coc(-c2ccccc2OCC)n1` (centres undefined) returned a half-inhibitory concentration (IC50) at 24 h in data set [1] of 27 µg/mL (≈ 85.3 µM). Also, in the data set on L929, the IC50 is 38.6 µg/mL (≈ 122 µM). In data set [2], 7.79 µg/mL (≈ 24.6 µM) corresponded to half-maximal inhibition (IC50 at 72 h).
With `CCOc1ccc(-c2nc(CNC[C@@H]3CC[C@H]4C[C@@H]3C4(C)C)co2)cc1`, the IC50 at 24 h in data set [1] was 45.2 µg/mL (≈ 128 µM). The compound also registered an IC50 at 72 h in [2] of 3.26 µg/mL (≈ 9.2 µM). Besides, the IC50 in the data set with Trypanosoma brucei [3] was 1.57 µg/mL (≈ 4.43 µM); with Trypanosoma brucei [4], 0.71 µg/mL (≈ 2 µM); with Trypanosoma brucei [5] it was 1.47 µg/mL and 1.38 µg/mL; in the data set with Trypanosoma brucei [5] (setting [21]), 1.18 µg/mL (≈ 3.33 µM). For the same compound, in data set [6], the chromatographic logD worked out at 5.5. In addition, the microsomal CLint at 10 µM in data set [9] was 35 µL/min/mg. Also, the half-life at 10 µM in [10] came to 1.35 h. Also, the recovery at MDR1 (ABCB1) [13] stood at 21%; on MDR1 (ABCB1) [16], 42%. For the same compound, the Papp A→B on MDR1 (ABCB1) [14] is 8.16 ×10⁻⁶ cm/s. In addition, on MDR1 (ABCB1) [15], the Papp B→A at 1 h, 3 µM was found to be 6.74 ×10⁻⁶ cm/s. For the same compound, the efflux ratio on MDR1 (ABCB1) [17] is 0.8. The compound also showed a kinetic solubility in data set [11] of 0.8 µM (≈ 0.284 µg/mL). In data set [12], this compound came in with a CLint in vitro of 86 µL/min/mg. The compound also showed a half-life at 1 µM in the data set “in vitro” of 0.167 h.
As for `Fc1ccc(-c2cc3nc(-c4ccccc4)cc(NC4CCNC4)n3n2)cc1` (centres undefined), in data set [2], half-maximal inhibition (IC50 at 72 h) required 1.39 µg/mL (≈ 3.72 µM). Moreover, in the data set on Trypanosoma brucei [5] (setting [21]), the IC50 was 0.583 µg/mL (≈ 1.56 µM). In data set [18], this compound yielded a half-life at 1 µM of 1.39 h. For the same compound, in [19], the half-life at 10 µM is 2.82 h.
Compound `Fc1ccc(-c2cc3nc(-c4ccccc4)cc(N4CCNCC4)n3n2)cc1` returned an IC50 at 72 h in data set [2] of 0.73 µg/mL (≈ 1.95 µM). In the data set with Trypanosoma brucei [5] (setting [21]), the IC50 amounted to 0.422 µg/mL (≈ 1.13 µM). Moreover, the chromatographic logD in data set [6] was 4.98. Further, the half-life at 1 µM in [18] came to 1.28 h. The same compound displayed a half-life at 10 µM in [19] of 3.68 h. In [20], the solubility (kinetic) came to 3 µM (≈ 1.12 µg/mL).
